Test results as given in US11597703B2, “Caspase inhibitors and methods of use thereof” (Histogen Inc., priority 2019, dated 2023).
pIC50: −log10 of the molar value.

What was measured:
IL-1β [1] = experiment: Inhibition of LPS-stimulated IL-1β in THP-1 cells (ELISA); assay type: cell-based, human; conditions: Homo sapiens, 10 micromolar, read-out: Percent Inhibition of IL1-β
Jurkat cells = experiment: Prevention of Fas-induced apoptosis in Jurkat cells (WST-8); assay type: cell-based; conditions: Homo sapiens, 10 micromolar, read-out: % Prevention of Fas - induced Jurkat cell apoptosis at 10 micromolar
Caspase 7 = target: T1, Caspase 7 (Homo sapiens, UniProt P55210); experiment: Caspase 7 enzymatic inhibition assay, IC50; assay type: biochemical; conditions: read-out: Caspase 7 enzyme inhibition IC50
T1 construct: purchased Enzo Biosciences
T1 sequence (P55210 24-198 limits assumed): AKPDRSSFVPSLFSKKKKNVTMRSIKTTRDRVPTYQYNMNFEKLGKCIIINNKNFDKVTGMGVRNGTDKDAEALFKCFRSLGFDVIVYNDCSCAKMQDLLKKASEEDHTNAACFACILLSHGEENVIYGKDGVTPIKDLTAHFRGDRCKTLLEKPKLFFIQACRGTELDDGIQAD
T1 sequence (P55210 207-303 limits assumed): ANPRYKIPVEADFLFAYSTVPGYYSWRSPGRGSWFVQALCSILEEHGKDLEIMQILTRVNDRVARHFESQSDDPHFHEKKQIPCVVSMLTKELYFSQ
In short: (§1)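 IC50 values reflect inhibition of purified human caspase activity (caspase-3, caspase-6, caspase-7), measured with the enzyme supplier's standard assay procedure.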

IL-1β [2] = experiment: Mouse in vivo model of peritoneal inflammation (LPS/ATP), IL-1β in peritoneal lavage fluid; parameters: species or system Mice; conditions: mouse peritonitis, IP injection
Protocol: Compounds of the present invention were tested in a mouse in vivo model of peritoneal inflammation (peritonitis). Mice were treated with intraperotonial injection of bacterial endotoxin, (LPS). After 1 hour, test compounds were administered by IP injection. After an additional hour, adenosine triphosphate (ATP) was administered by IP injection to further induce the production of the inflammatory cytokines, IL-1β and IL 18. After 0.5 hours, peritoneal lavage fluid was collected and analyzed for IL-1β and IL 18. An inhibitor of the NLRP 3 inflammasome, MCC950, was administered by IP injection and included as a reference test compound. […] IL18 levels were determined by a commercially available ELISA kit following the manufacture's instructions FIG. 3.

Caspase-3 = target: T2, Caspase-3 (Homo sapiens, UniProt P42574); experiment: Caspase-3 enzymatic inhibition assay, IC50; assay type: biochemical; conditions: read-out: Caspase 3 enzyme inhibition IC50
T2 construct: purchased Enzo Biosciences
T2 sequence (P42574 29-175 limits assumed): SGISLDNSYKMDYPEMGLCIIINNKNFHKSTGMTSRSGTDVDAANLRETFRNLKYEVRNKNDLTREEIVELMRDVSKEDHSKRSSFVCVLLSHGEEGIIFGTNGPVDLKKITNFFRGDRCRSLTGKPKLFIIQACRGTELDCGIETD
T2 sequence (P42574 176-277 limits assumed): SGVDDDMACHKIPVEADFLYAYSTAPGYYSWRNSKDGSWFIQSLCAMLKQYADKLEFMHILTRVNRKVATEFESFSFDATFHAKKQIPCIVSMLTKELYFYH
In short: as §1

pIC50 (Caspase 7): ≤ 6.00 | pIC50 (Caspase-3): ≤ 6.00
SMILES: C[C@H](NC(=O)C(=O)Nc1c(F)cccc1F)C(=O)N[C@@H](CCC(=O)O)C(=O)COc1c(F)c(F)cc(F)c1F [Example 6, (S)-4-((S)-2-(2-((2,6-Difluorophenyl)amino)-2-oxoacetamido)propanamido)-5-oxo-6-(2,3,5,6-tetrafluorophenoxy)hexanoic acid]
inhibition at 10 µM (IL-1β [1]): > 90% | inhibition at 10 µM (Jurkat cells): ≤ 10% | inhibition of the in vivo production of IL-1β (IL-1β [2]): statistically significant inhibition
